Literature values in publication PMC6974622, “DeepMalaria: Artificial Intelligence Driven Discovery of Potent Antiplasmodials” (Frontiers in Pharmacology, 2020).
Where a name gives a salt, the structure may show the parent alone. Read-outs that look alike come from different tables or passages of the source. *1 amine or outer side, *2 acyl side, *3 side chain or, on linkers, in order; H or OH if unused. Where a SMILES comes first, the peptide text is derived from it. Bridges are numbered along the chain shown (N, C = ends). Roman numbers before positions name the chains, in order. [ ]: non-standard residue; d: D form. Actinocin(9to1) = Cc1c2oc3c(C)ccc(C(=O)[*:1])c3nc-2c(C(=O)[*:2])c(N)c1=O; NMeV = CN[C@H](C(=O)O)C(C)C; Sar = CNCC(=O)O

Test system: 3D7
Set-up: unit not given here
Settings: cited from earlier work
[1] = repurposing dataset, 179 approved drugs, ref https://www.nature.com/articles/nchembio806

SMILES	3D7 [1]	3D7
Cc1c2oc3c(C)ccc(C(=O)N[C@@H]4C(=O)N[C@H](C(C)C)C(=O)N5CCC[C@H]5C(=O)N(C)CC(=O)N(C)[C@@H](C(C)C)C(=O)O[C@@H]4C)c3nc-2c(C(=O)N[C@@H]2C(=O)N[C@H](C(C)C)C(=O)N3CCC[C@H]3C(=O)N(C)CC(=O)N(C)[C@@H](C(C)C)C(=O)O[C@@H]2C)c(N)c1=O [Dactinomycin] (I: T[dV]P[Sar][NMeV] / II: T[dV]P[Sar][NMeV]; ester I:1-I:C, II:1-II:C; linker I:N-II:N via Actinocin(9to1))	99.2	–
COc1cccc2c1C(=O)c1c(O)c3c(c(O)c1C2=O)C[C@@](O)(C(C)=O)C[C@@H]3O[C@H]1C[C@H](N)[C@H](O)[C@H](C)O1 [Daunorubicin]	99.6	–
C[N+](C)(C)CCCCCCCCCC[N+](C)(C)C [Decamethonium bromide]	54.8	–
CN(CCCCCCCCCCN(C)C(=O)Oc1cccc([N+](C)(C)C)c1)C(=O)Oc1cccc([N+](C)(C)C)c1 [Demecarium bromide]	95.9	–
Cc1cc(N)c2ccccc2[n+]1CCCCCCCCCC[n+]1c(C)cc(N)c2ccccc21 [Dequalinium chloride]	97.6	–
Clc1ccc2c(c1)CCc1cccnc1C2=C1CCNCC1 [Desloratadine]	81.1	–
Oc1ccc(CCN2CCC(Nc3nc4ccccc4n3Cc3ccc(F)cc3)CC2)cc1 [Desmethylastemizole]	96.7	–
CCOC(=O)NC1=C(N2CC2)C(=O)C(NC(=O)OCC)=C(N2CC2)C1=O [Diaziquone]	97.3	–
CC/C(=C(/CC)c1ccc(O)cc1)c1ccc(O)cc1 [Diethylstilbestrol]	57.3	–
CN1C[C@H](C(=O)N[C@]2(C)O[C@@]3(O)[C@@H]4CCCN4C(=O)[C@H](Cc4ccccc4)N3C2=O)C[C@@H]2c3cccc4[nH]cc(c34)C[C@H]21 [Dihydroergotamine mesylate]	88.1	–
C[N+]1(C)CCC(=C(c2ccccc2)c2ccccc2)CC1 [Diphemanil]	90	–
CCN1/C(=C/C=C/C=C/c2sc3ccccc3[n+]2CC)Sc2ccccc21 [Dithiazanine iodide]	98	–
CCCCCCCCCCCC[N+](C)(C)CCOc1ccccc1 [Domiphen bromide]	98.3	–
O=c1[nH]c2ccccc2n1CCCN1CCC(n2c(=O)[nH]c3cc(Cl)ccc32)CC1 [Domperidone]	82.2	–
COc1cc2nc(N3CCN(C(=O)C4COc5ccccc5O4)CC3)nc(N)c2cc1OC (stereo not shown) [Doxazosin mesylate]	96.4	–
COc1cccc2c1C(=O)c1c(O)c3c(c(O)c1C2=O)C[C@@](O)(C(=O)CO)C[C@@H]3O[C@H]1C[C@H](N)[C@H](O)[C@H](C)O1 [Doxorubicin]	99.5	–
O=c1oc2c(O)c(O)cc3c(=O)oc4c(O)c(O)cc1c4c23 [Ellagic acid]	87.1	–
CC[C@H]1CN2CCc3cc(OC)c(OC)cc3[C@@H]2C[C@@H]1C[C@H]1NCCc2cc(OC)c(OC)cc21 [Emetine]	98.3	–
COc1cccc2c1C(=O)c1c(O)c3c(c(O)c1C2=O)C[C@@](O)(C(=O)CO)C[C@@H]3O[C@H]1C[C@H](N)[C@@H](O)[C@H](C)O1 [Epirubicin]	98.4	–
CNC(=O)Oc1ccc2c(c1)[C@]1(C)CCN(C)[C@@H]1N2C [Eserine]	79.2	–
CCOc1ccc2nc3cc(N)ccc3c(N)c2c1 [Ethacridine lactate]	96.2	–
O=c1[nH]cc(F)c(=O)[nH]1 [Fluorouracil]	89.2	–
Fc1ccc(C(c2ccccc2)(c2ccccc2F)n2ccnc2)cc1 (stereo not shown) [Flutrimazole]	85.2	–
COc1cc2ncnc(Nc3ccc(F)c(Cl)c3)c2cc1OCCCN1CCOCC1 [Geftinib]	–	67.6
Nc1ccn([C@@H]2O[C@H](CO)[C@@H](O)C2(F)F)c(=O)n1 [Gemcitabine]	75.3	–
CN(C)c1ccc(C(=C2C=CC(=[N+](C)C)C=C2)c2ccc(N(C)C)cc2)cc1 [Gentian violet]	98.7	–
N=C(N)N/N=C/c1c(Cl)cccc1Cl [Guanabenz acetate]	92.7	–
CCCCC(CC)CN1CN(CC(CC)CCCC)CC(C)(N)C1 (stereo not shown) [Hexetidine]	86.2	–
